Laboratory results published in ChEMBL document CHEMBL2440076, “New triarylpyrazoles as broad-spectrum anticancer agents: design, synthesis, and biological evaluation” (Eur J Med Chem, 2013).

Experiments:
Format in all cases: functional
OVCAR-5 [1] = assay: Growth inhibition of human OVCAR5 cells assessed as cell growth at 3X10'-7 M after 48 hrs by sulforhodamine B assay; conditions: OVCAR-5, 48 h, read-out: Activity
OVCAR-4 [2] = assay: Growth inhibition of human OVCAR4 cells assessed as cell growth at 3X10'-7 M after 48 hrs by sulforhodamine B assay; conditions: OVCAR-4, 48 h, read-out: Activity
SK-MEL-2 = assay: Growth inhibition of human SK-MEL-2 cells assessed as cell growth at 3X10'-7 M after 48 hrs by sulforhodamine B assay; conditions: SK-MEL-2, 48 h, read-out: Activity
HCT-15 = assay: Growth inhibition of human HCT15 cells assessed as cell growth at 3X10'-7 M after 48 hrs by sulforhodamine B assay; conditions: HCT-15, 48 h, read-out: Activity
NCI-H460 = assay: Growth inhibition of human NCI-H460 cells assessed as cell growth at 3X10'-7 M after 48 hrs by sulforhodamine B assay; conditions: NCI-H460, 48 h, read-out: Activity
NCI-H23 [3] = assay: Growth inhibition of human NCI-H23 cells assessed as cell growth at 3X10'-7 M after 48 hrs by sulforhodamine B assay; conditions: NCI-H23, 48 h, read-out: Activity
MOLT-4 = assay: Growth inhibition of human MOLT4 cells assessed as cell growth at 3X10'-7 M after 48 hrs by sulforhodamine B assay; conditions: MOLT-4, 48 h, read-out: Activity
TK-10 = assay: Growth inhibition of human TK10 cells assessed as cell growth at 3X10'-8 M after 48 hrs by sulforhodamine B assay; conditions: TK-10, 48 h, read-out: Activity
M14 [4] = assay: Growth inhibition of human M14 cells assessed as cell growth at 3X10'-8 M after 48 hrs by sulforhodamine B assay; conditions: M14, 48 h, read-out: Activity
SR = assay: Growth inhibition of human SR cells assessed as cell growth at 3X10'-8 M after 48 hrs by sulforhodamine B assay; conditions: read-out: Activity
MDA-MB-468 = assay: Growth inhibition of human MDA-MB-468 cells assessed as cell growth at 3X10'-9 M after 48 hrs by sulforhodamine B assay; conditions: MDA-MB-468, 48 h, read-out: Activity
[5] = Growth inhibition of human Hs 578T cells assessed as cell growth at 3X10'-9 M after 48 hrs by sulforhodamine B assay; conditions: read-out: Activity
SK-OV-3 [6] = assay: Growth inhibition of human SKOV3 cells assessed as cell growth at 3X10'-5 M after 48 hrs by sulforhodamine B assay; conditions: SK-OV-3, 48 h, read-out: Activity
CAKI-1 = assay: Growth inhibition of human CAKI-1 cells assessed as cell growth at 3X10'-9 M after 48 hrs by sulforhodamine B assay; conditions: CAKI-1, 48 h, read-out: Activity
ACHN = assay: Growth inhibition of human ACHN cells assessed as cell growth at 3X10'-9 M after 48 hrs by sulforhodamine B assay; conditions: read-out: Activity
[7] = Growth inhibition of human NCI-ADR-RES cells assessed as cell growth at 3X10'-9 M after 48 hrs by sulforhodamine B assay; conditions: read-out: Activity
OVCAR-4 [8] = assay: Growth inhibition of human OVCAR4 cells assessed as cell growth at 3X10'-5 M after 48 hrs by sulforhodamine B assay; conditions: OVCAR-4, 48 h, read-out: Activity
SK-MEL-28 [9] = assay: Growth inhibition of human SK-MEL-28 cells assessed as cell growth at 3X10'-5 M after 48 hrs by sulforhodamine B assay; conditions: SK-MEL-28, 48 h, read-out: Activity
MDA-MB-435 = assay: Growth inhibition of human MDA-MB-435 cells assessed as cell growth at 3X10'-5 M after 48 hrs by sulforhodamine B assay; conditions: MDA-MB-435, 48 h, read-out: Activity
U-251 [10] = assay: Growth inhibition of human U251 cells assessed as cell growth at 3X10'-5 M after 48 hrs by sulforhodamine B assay; conditions: U-251, 48 h, read-out: Activity
SNB-75 = assay: Growth inhibition of human SNB75 cells assessed as cell growth at 3X10'-5 M after 48 hrs by sulforhodamine B assay; conditions: SNB-75, 48 h, read-out: Activity
HT-29 = assay: Growth inhibition of human HT-29 cells assessed as cell growth at 3X10'-5 M after 48 hrs by sulforhodamine B assay; conditions: HT-29, 48 h, read-out: Activity
NCI-H23 [11] = assay: Growth inhibition of human NCI-H23 cells assessed as cell growth at 3X10'-5 M after 48 hrs by sulforhodamine B assay; conditions: NCI-H23, 48 h, read-out: Activity
HOP-92 = assay: Growth inhibition of human HOP92 cells assessed as cell growth at 3X10'-5 M after 48 hrs by sulforhodamine B assay; conditions: HOP-92, 48 h, read-out: Activity
BT-549 [12] = assay: Growth inhibition of human BT549 cells assessed as cell growth at 3X10'-6 M after 48 hrs by sulforhodamine B assay; conditions: BT-549, 48 h, read-out: Activity
[13] = Growth inhibition of human Hs 578T cells assessed as cell growth at 3X10'-6 M after 48 hrs by sulforhodamine B assay; conditions: read-out: Activity
M14 [14] = assay: Growth inhibition of human M14 cells assessed as cell growth at 3X10'-9 M after 48 hrs by sulforhodamine B assay; conditions: M14, 48 h, read-out: Activity
U-251 [15] = assay: Growth inhibition of human U251 cells assessed as cell growth at 3X10'-9 M after 48 hrs by sulforhodamine B assay; conditions: U-251, 48 h, read-out: Activity
[16] = Growth inhibition of human HCC2998 cells assessed as cell growth at 3X10'-9 M after 48 hrs by sulforhodamine B assay; conditions: HCC 2998, 48 h, read-out: Activity
NCI-H226 = assay: Growth inhibition of human NCI-H226 cells assessed as cell growth at 3X10'-9 M after 48 hrs by sulforhodamine B assay; conditions: NCI-H226, 48 h, read-out: Activity
SK-OV-3 [17] = assay: Growth inhibition of human SKOV3 cells assessed as cell growth at 3X10'-6 M after 48 hrs by sulforhodamine B assay; conditions: SK-OV-3, 48 h, read-out: Activity
OVCAR-5 [18] = assay: Growth inhibition of human OVCAR5 cells assessed as cell growth at 3X10'-6 M after 48 hrs by sulforhodamine B assay; conditions: OVCAR-5, 48 h, read-out: Activity
UACC-257 = assay: Growth inhibition of human UACC257 cells assessed as cell growth at 3X10'-6 M after 48 hrs by sulforhodamine B assay; conditions: UACC-257, 48 h, read-out: Activity
SK-MEL-28 [19] = assay: Growth inhibition of human SK-MEL-28 cells assessed as cell growth at 3X10'-6 M after 48 hrs by sulforhodamine B assay; conditions: SK-MEL-28, 48 h, read-out: Activity
KM12 = assay: Growth inhibition of human KM12 cells assessed as cell growth at 3X10'-6 M after 48 hrs by sulforhodamine B assay; conditions: KM12, 48 h, read-out: Activity
BT-549 [20] = assay: Growth inhibition of human BT549 cells assessed as cell growth at 3X10'-7 M after 48 hrs by sulforhodamine B assay; conditions: BT-549, 48 h, read-out: Activity
MDA-MB-231 = assay: Growth inhibition of human MDA-MB-231 cells assessed as cell growth at 3X10'-7 M after 48 hrs by sulforhodamine B assay; conditions: MDA-MB-231, 48 h, read-out: Activity

O=C(Nc1cccc(-n2cc(-c3ccncc3)c(-c3ccc(Cl)c(O)c3)n2)c1)Nc1ccc(Cl)c(C(F)(F)F)c1
growth at 0.3 µM (OVCAR-5 [1]): 88% | growth at 0.3 µM (OVCAR-4 [2]): 94% | growth at 0.3 µM (SK-MEL-2): 108% | growth at 0.3 µM (HCT-15): 84% | growth at 0.3 µM (NCI-H460): 94% | growth at 0.3 µM (NCI-H23 [3]): 93% | growth at 0.3 µM (MOLT-4): 83% | growth at 0.03 µM (TK-10): 103% | growth at 0.03 µM (M14 [4]): 101% | growth at 0.03 µM (SR): 104% | growth at 0.003 µM (MDA-MB-468): 89% | growth at 0.003 µM [5]: 91% | growth at 30 µM (SK-OV-3 [6]): -11% | growth at 0.003 µM (CAKI-1): 89% | growth at 0.003 µM (ACHN): 97% | growth at 0.003 µM [7]: 102% | growth at 30 µM (OVCAR-4 [8]): 9% | growth at 30 µM (SK-MEL-28 [9]): -87% | growth at 30 µM (MDA-MB-435): -54% | growth at 30 µM (U-251 [10]): -80% | growth at 30 µM (SNB-75): -31% | growth at 30 µM (HT-29): -63% | growth at 30 µM (NCI-H23 [11]): -55% | growth at 30 µM (HOP-92): -63% | growth at 3 µM (BT-549 [12]): 12% | growth at 3 µM [13]: 9% | growth at 0.003 µM (M14 [14]): 100% | growth at 0.003 µM (U-251 [15]): 98% | growth at 0.003 µM [16]: 100% | growth at 0.003 µM (NCI-H226): 88% | growth at 3 µM (SK-OV-3 [17]): 22% | growth at 3 µM (OVCAR-5 [18]): 33% | growth at 3 µM (UACC-257): -22% | growth at 3 µM (SK-MEL-28 [19]): 1% | growth at 3 µM (KM12): 2% | growth at 0.3 µM (BT-549 [20]): 104% | growth at 0.3 µM (MDA-MB-231): 69%

O=C(Nc1cccc(-n2cc(-c3ccncc3)c(-c3ccc(Cl)c(O)c3)n2)c1)Nc1cccc(C(F)(F)F)c1
growth at 0.3 µM (OVCAR-5 [1]): 105% | growth at 0.3 µM (OVCAR-4 [2]): 108% | growth at 0.3 µM (SK-MEL-2): 107% | growth at 0.3 µM (HCT-15): 96% | growth at 0.3 µM (NCI-H460): 94% | growth at 0.3 µM (NCI-H23 [3]): 96% | growth at 0.3 µM (MOLT-4): 97% | growth at 0.03 µM (TK-10): 98% | growth at 0.03 µM (M14 [4]): 98% | growth at 0.03 µM (SR): 99% | growth at 0.003 µM (MDA-MB-468): 95% | growth at 0.003 µM [5]: 93% | growth at 30 µM (SK-OV-3 [6]): 15% | growth at 0.003 µM (CAKI-1): 98% | growth at 0.003 µM (ACHN): 103% | growth at 0.003 µM [7]: 99% | growth at 30 µM (OVCAR-4 [8]): 16% | growth at 30 µM (SK-MEL-28 [9]): 3% | growth at 30 µM (MDA-MB-435): -19% | growth at 30 µM (U-251 [10]): -48% | growth at 30 µM (SNB-75): 1% | growth at 30 µM (HT-29): 1% | growth at 30 µM (NCI-H23 [11]): 6% | growth at 30 µM (HOP-92): -33% | growth at 3 µM (BT-549 [12]): 79% | growth at 3 µM [13]: 50% | growth at 0.003 µM (M14 [14]): 97% | growth at 0.003 µM (U-251 [15]): 100% | growth at 0.003 µM [16]: 97% | growth at 0.003 µM (NCI-H226): 98% | growth at 3 µM (SK-OV-3 [17]): 58% | growth at 3 µM (OVCAR-5 [18]): 97% | growth at 3 µM (UACC-257): 60% | growth at 3 µM (SK-MEL-28 [19]): 55% | growth at 3 µM (KM12): 20% | growth at 0.3 µM (BT-549 [20]): 102% | growth at 0.3 µM (MDA-MB-231): 95%
